How the values were obtained:
Assay type in all cases: in vivo
Settings in all cases: 100 = 100% disease control, 0 = no control
Zymoseptoria tritici = assay: Test A: wheat leaf blotch, preventive spray on wheat seedlings
Excerpt: (§1) General protocol for preparing test suspensions for Tests A-F: the test compounds were first dissolved in acetone in an amount equal to 3% of the final volume and then suspended at the desired concentration (in ppm) in acetone and purified water (50/50 mix by volume) containing 250 ppm of the surfactant PEG400 (polyhydric alcohol esters). The resulting test suspensions were then used in Tests A-F.
The test solution was sprayed to the point of run-off on wheat seedlings. The following day the seedlings were inoculated with a spore suspension of Zymoseptoria tritici (the causal agent of wheat leaf blotch) and incubated in a saturated atmosphere at 24° C. for 48 h, and then moved to a growth chamber at 20° C. for 17 days, after which time disease ratings were made.
(§2) A rating of 100 indicates 100% disease control and a rating of 0 indicates no disease control (relative to the controls). A dash (-) indicates the compound was not tested.

[1] = test system: Puccinia recondita f. sp. tritici; assay: Test B: wheat leaf rust, preventive spray on wheat seedlings
Excerpt: as §1
The test solution was sprayed to the point of run-off on wheat seedlings. The following day the seedlings were inoculated with a spore suspension of Puccinia recondita f. sp. tritici (the causal agent of wheat leaf rust) and incubated in a saturated atmosphere at 20° C. for 24 h, and then moved to a growth chamber at 20° C. for 7 days, after which time visual disease ratings were made.
as §2

[2] = test system: Blumeria graminis f. sp. tritici; assay: Test C: wheat powdery mildew, preventive spray on wheat seedlings
Excerpt: as §1
The test suspension was sprayed to the point of run-off on wheat seedlings. The following day the seedlings were inoculated with a spore dust of Blumeria graminis f. sp. tritici, (also known as Eysiphe graminis f. sp. tritici, the causal agent of wheat powdery mildew) and incubated in a growth chamber at 20° C. for 8 days, after which time visual disease ratings were made.
as §2

Phakopsora pachyrhizi = assay: Test D: Asian soybean rust, preventive spray on soybean seedlings
Excerpt: as §1
The test solution was sprayed to the point of run-off on soybean seedlings. The following day the seedlings were inoculated with a spore suspension of Phakopsora pachyrhizi (the causal agent of Asian soybean rust) and incubated in a saturated atmosphere at 22° C. for 24 h and then moved to a growth chamber at 22° C. for 8 days, after which time visual disease ratings were made.
as §2

Botrytis cinerea = assay: Test E: tomato Botrytis, preventive spray on tomato seedlings
Excerpt: as §1
The test suspension was sprayed to the point of run-off on tomato seedlings. The following day the seedlings were inoculated with a spore suspension of Botrytis cinerea (the causal agent of tomato Botrytis) and incubated in a saturated atmosphere at 20° C. for 48 h, and then moved to a growth chamber at 24° C. for 3 days, after which time visual disease ratings were made.
as §2

Alternaria solani = assay: Test F: tomato early blight, preventive spray on tomato seedlings
Excerpt: as §1
The test suspension was sprayed to the point of run-off on tomato seedlings. The following day the seedlings were inoculated with a spore suspension of Alternaria solani (the causal agent of tomato early blight) and incubated in a saturated atmosphere at 27° C. for 48 h, and then moved to a growth chamber at 20° C. for 3 days, after which time visual disease ratings were made.
as §2

SMILES | Test A disease control rating (Zymoseptoria tritici; 50 ppm) [%] | Test B disease control rating ([1]; 50 ppm) [%] | Test C disease control rating ([2]; 50 ppm) [%] | Test D disease control rating (Phakopsora pachyrhizi; 50 ppm) [%] | Test E disease control rating (Botrytis cinerea; 50 ppm) [%] | Test F disease control rating (Alternaria solani; 50 ppm) [%] | further results
Cn1cc(-c2cc(F)ccc2Cl)c(-c2ccc(F)cc2F)c(Cl)c1=O [Compound 40] | 100 | 100 | 98 | 92 | 94 | 99 | 
Cn1cc(-c2ccc(F)cc2F)c(-c2ccc(F)cc2F)c(Cl)c1=O [Compound 41] | 100 | 96 | 96 | 69 | 91 | 91 | 
Cn1cc(-c2ccc(F)cc2Cl)c(-c2ccc(F)cc2F)c(Cl)c1=O [Compound 42] | 100 | 99 | 93 | 73 | 94 | 93 | 
COc1ccc(Cl)c(-c2cn(C)c(=O)c(C)c2-c2ccc(F)cc2Cl)c1 [Compound 43, 4-(2-chloro-4-fluorophenyl)-5-(2-chloro-5-methoxyphenyl)-1,3-dimethyl-2(1H)-pyridinone] |  |  |  |  |  |  | pest or weed control at 50 ppm (Zymoseptoria tritici; Zymoseptoria tritici, 50 ppm, read-out: Test A disease control rating): 100%; pest or weed control at 50 ppm ([1]; Puccinia recondita, 50 ppm, read-out: Test B disease control rating): 100%; pest or weed control at 50 ppm ([2]; Blumeria graminis, 50 ppm, read-out: Test C disease control rating): 100%; pest or weed control at 50 ppm (Phakopsora pachyrhizi; Phakopsora pachyrhizi, 216 h, 50 ppm, read-out: Test D disease control rating): 97%; pest or weed control at 50 ppm (Botrytis cinerea; Botrytis cinerea, 50 ppm, read-out: Test E disease control rating): 98%; pest or weed control at 50 ppm (Alternaria solani; Alternaria solani, 50 ppm, read-out: Test F disease control rating): 100%
Cn1c(Cl)c(-c2ccc(F)cc2Cl)c(-c2c(F)cccc2F)c(Cl)c1=O [Compound 44] | 98 | 93 | 79 | 96 | 40 | 0 | 
CCOn1cc(-c2cc(OC)cc(OC)c2)c(-c2ccc(F)cc2Cl)c(Cl)c1=O [Compound 45] |  |  |  |  |  |  | Test A disease control rating (Zymoseptoria tritici; 250 ppm): 100%; Test B disease control rating ([1]; 250 ppm): 91%; Test C disease control rating ([2]; 250 ppm): 72%; Test D disease control rating (Phakopsora pachyrhizi; 250 ppm): 0%; Test E disease control rating (Botrytis cinerea; 250 ppm): 97%; Test F disease control rating (Alternaria solani; 250 ppm): 0%
CCOn1cc(-c2cc(OC)cc(OC)c2Cl)c(-c2ccc(F)cc2Cl)c(Cl)c1=O [Compound 46] |  |  |  |  |  |  | Test A disease control rating (Zymoseptoria tritici; 250 ppm): 99%; Test B disease control rating ([1]; 250 ppm): 100%; Test C disease control rating ([2]; 250 ppm): 92%; Test D disease control rating (Phakopsora pachyrhizi; 250 ppm): 99%; Test E disease control rating (Botrytis cinerea; 250 ppm): 88%; Test F disease control rating (Alternaria solani; 250 ppm): 47%
CCc1c(-c2ccc(F)cc2Cl)c(-c2cc(OC)ccc2Cl)cn(C)c1=O [Compound 47] | 81 | 100 | 99 | 51 | 91 | 99 | 
Cn1cc(-c2ccccc2Cl)c(-c2ccc(F)cc2F)c(Cl)c1=O [Compound 48] | 99 | 99 | 72 | 77 | 96 | 96 | 
COc1ccc(F)c(-c2cn(C)c(=O)c(Cl)c2-c2ccc(F)cc2F)c1 [Compound 49] | 100 | 100 | 0 | 73 | 96 | 100 | 
CCOc1ccc(Cl)c(-c2cn(C)c(=O)c(Cl)c2-c2ccc(F)cc2F)c1 [Compound 52] | 100 | 100 | 91 | 81 | 99 | 99 | 
COc1cc(OC)cc(-c2cn(C)c(=O)cc2-c2ccc(F)cc2Cl)c1 [Compound 53, 4-(2-chloro-4-fluorophenyl)-5-(3,5-dimethoxyphenyl)-1-methyl-2(1H)-pyridinone] |  |  |  |  |  |  | pest or weed control at 250 ppm (Zymoseptoria tritici; Zymoseptoria tritici, 250 ppm, read-out: Test A disease control rating): 100%; pest or weed control at 250 ppm ([1]; Puccinia recondita, 250 ppm, read-out: Test B disease control rating): 97%; pest or weed control at 250 ppm ([2]; Blumeria graminis, 250 ppm, read-out: Test C disease control rating): 56%; pest or weed control at 250 ppm (Phakopsora pachyrhizi; Phakopsora pachyrhizi, 216 h, 250 ppm, read-out: Test D disease control rating): 59%; pest or weed control at 250 ppm (Botrytis cinerea; Botrytis cinerea, 250 ppm, read-out: Test E disease control rating): 99%; pest or weed control at 250 ppm (Alternaria solani; Alternaria solani, 250 ppm, read-out: Test F disease control rating): 0%
Cc1c(-c2cn(C)c(=O)c(Cl)c2-c2ccc(F)cc2Cl)cccc1[N+](=O)[O-] [Compound 54] | 100 | 99 | 0 | 75 | 92 | 26 | 
Cn1cc(-c2sccc2Cl)c(-c2ccc(F)cc2Cl)c(Cl)c1=O [Compound 55] | 96 | 90 | 0 | 0 | 97 | 0 | 
COc1ccc(Cl)c(-c2cn(C)c(=O)c(Cl)c2-c2ccc(C#N)cc2Cl)c1 [Compound 56] | 100 | 100 | 98 | 97 | 96 | 99 | 
COc1ccc(Cl)c(-c2cn(C)c(=O)c(Cl)c2-c2ccccc2C(F)(F)F)c1 [Compound 57] | 98 | 99 | 64 | 44 | 90 | 0 | 
COc1ccc(Cl)c(-c2cn(C)c(=O)cc2-c2ccc(Br)cc2Cl)c1 [Compound 58] | 98 | 55 | 0 | 0 | 90 | 0 | 

From US20240215577A1, “FUNGICIDAL PYRIDONES” (FMC Corporation, priority 2021, published 2024)
